Converted amounts (≈) assume the structure as drawn. One block for each molecule: values may come before it.
Tests used:
Assay in all cases: ≥ marks a high value that may be exact or a test limit, other limits are often not marked, values filed in µg/mL are converted to µM
[1] = system: Candida albicans NCYC 1467
[2] = system: Enterococcus faecalis NCTC 12697
[3] = system: Escherichia coli NCTC 10418
[4] = system: Pseudomonas aeruginosa ATCC 27853
[5] = system: Staphylococcus aureus NCTC 10788
[6] = system: Staphylococcus aureus NCTC 12493
[7] = system: Acinetobacter baumannii ATCC 17978D-5
[8] = system: Enterococcus faecium ATCC 700221
[9] = system: Klebsiella aerogenes ATCC 13048
[10] = system: Pseudomonas aeruginosa ATCC 19660
[11] = system: Staphylococcus aureus ATCC 33591
[12] = system: Staphylococcus epidermidis ATCC 51625
[13] = system: Streptococcus pneumoniae ATCC 49619
[14] = system: Escherichia coli ATCC 25922
[15] = system: Pseudomonas aeruginosa 21328
[16] = system: Pseudomonas aeruginosa 25349
[17] = system: Pseudomonas aeruginosa CICC 10419
[18] = system: Pseudomonas aeruginosa CICC 11411
[19] = system: Pseudomonas aeruginosa CICC 11421
[20] = system: Pseudomonas aeruginosa CICC 11431
[21] = system: Pseudomonas aeruginosa CICC 21625
[22] = system: Pseudomonas aeruginosa CICC 21630
[23] = system: Staphylococcus aureus ATCC 29213
[24] = system: Acinetobacter baumannii ATCC 17978
Acinetobacter baumannii = system: Acinetobacter baumannii
Candida albicans 17-88 = system: Candida albicans 17-88
[25] = system: Candida albicans NRRL Y-326
[26] = system: Candida albicans NRRL Y-6359
Candida albicans = system: Candida albicans
Candida dubliniensis = system: Candida dubliniensis
Candida glabrata = system: Candida glabrata
Candida krusei = system: Candida krusei
[27] = system: Candida parapsilosis NRRL Y-1761
[28] = system: Candida parapsilosis NRRL Y-1763
Candida parapsilosis = system: Candida parapsilosis
Candida tropicalis = system: Candida tropicalis
[29] = system: Cutibacterium acnes ATCC 11827
[30] = system: Cutibacterium acnes ATCC 6919
Cutibacterium acnes = system: Cutibacterium acnes
Debaryomyces hansenii = system: Debaryomyces hansenii
Enterobacter cloacae = system: Enterobacter cloacae
[31] = system: Klebsiella pneumoniae ATCC 10031
Klebsiella pneumoniae = system: Klebsiella pneumoniae
Kluyveromyces lactis = system: Kluyveromyces lactis
Pseudomonas aeruginosa = system: Pseudomonas aeruginosa
[32] = system: Staphylococcus aureus ATCC 33592
Staphylococcus aureus MR = system: Staphylococcus aureus MR
Staphylococcus aureus = system: Staphylococcus aureus
[33] = system: Streptococcus mutans ATCC UA159

Compound: CSCC[C@H](NC(=O)[C@H](CC(=O)O)NC(=O)[C@@H](NC(=O)[C@@H](NC(=O)[C@H](C)NC(=O)[C@H](CC(N)=O)NC(=O)[C@H](CC(C)C)NC(=O)[C@H](C)NC(=O)[C@H](C)NC(=O)[C@H](CCCCN)NC(=O)CNC(=O)[C@H](C)NC(=O)[C@H](C)NC(=O)[C@H](CCCCN)NC(=O)CNC(=O)[C@@H](NC(=O)[C@H](Cc1cnc[nH]1)NC(=O)[C@H](CCCCN)NC(=O)[C@H](CC(C)C)NC(=O)[C@H](CC(C)C)NC(=O)[C@@H](NC(=O)[C@H](CCCCN)NC(=O)[C@H](Cc1c[nH]c2ccccc12)NC(=O)[C@H](CC(C)C)NC(=O)[C@H](C)N)[C@@H](C)O)C(C)C)C(C)C)[C@@H](C)O)C(=O)N[C@H](C(=O)N[C@@H](CC(N)=O)C(=O)N[C@@H](CCC(N)=O)C(N)=O)C(C)C [ALWKTLLKHVGKAAGKAALNAVTDMVNQ]
MIC [1]: 4 µM (≈ 11.8 µg/mL) | MIC [2]: ≥ 32 µM | MIC [3]: 8 µM (≈ 23.6 µg/mL) | MIC [4]: 16 µM (≈ 47.2 µg/mL) | MIC [5]: 4 µM (≈ 11.8 µg/mL) | MIC [6]: 8 µM (≈ 23.6 µg/mL)

Compound: C[C@H](NC(=O)[C@H](Cc1ccccc1)NC(=O)CNC(=O)[C@@H]1CCCN1C(=O)[C@@H](N)CS)C(=O)N[C@@H](CCCCN)C(=O)N[C@@H](CCCCN)C(=O)N[C@@H](Cc1ccccc1)C(=O)N[C@@H](C)C(=O)N[C@@H](CCCCN)C(=O)N[C@@H](CCCCN)C(=O)N[C@@H](Cc1ccccc1)C(=O)N[C@@H](CCCCN)C(=O)N[C@@H](CCCCN)C(=O)N[C@@H](Cc1ccccc1)C(=O)N[C@@H](C)C(=O)N[C@@H](CCCCN)C(=O)N[C@@H](CCCCN)C(=O)N[C@@H](Cc1ccccc1)C(=O)N[C@@H](C)C(=O)N[C@@H](CCCCN)C(=O)N[C@@H](Cc1ccccc1)C(=O)N[C@@H](C)C(=O)N[C@@H](Cc1ccccc1)C(=O)N[C@@H](C)C(=O)N[C@@H](Cc1ccccc1)C(=O)O [CPGFAKKFAKKFKKFAKKFAKFAFAF]
MIC [7]: 5.28 µM (≈ 16 µg/mL) | MIC [8]: 5.28 µM (≈ 16 µg/mL) | MIC [9]: 10.6 µM (≈ 32 µg/mL) | MIC [10]: 10.6 µM (≈ 32 µg/mL) | MIC [4]: 10.6 µM (≈ 32 µg/mL) | MIC [11]: 10.6 µM (≈ 32 µg/mL) | MIC [12]: 5.28 µM (≈ 16 µg/mL) | MIC [13]: 10.6 µM (≈ 32 µg/mL)

Compound: CC(C)C[C@H](NC(=O)[C@H](CCCN=C(N)N)NC(=O)[C@H](CCCN=C(N)N)NC(=O)[C@H](CC(C)C)NC(=O)[C@H](CCCN=C(N)N)NC(=O)[C@H](CCCN=C(N)N)NC(=O)[C@H](CCCN=C(N)N)NC(=O)[C@H](Cc1c[nH]c2ccccc12)NC(=O)[C@H](Cc1c[nH]c2ccccc12)NC(=O)[C@H](CCCN=C(N)N)NC(=O)[C@H](CCCN=C(N)N)NC(=O)[C@H](CCCN=C(N)N)NC(=O)[C@H](CC(C)C)NC(=O)[C@H](CCCN=C(N)N)NC(=O)[C@H](CCCN=C(N)N)NC(=O)[C@@H](N)CC(C)C)C(N)=O [LRRLRRRWWRRRLRRL]
MIC [14]: 6.65 µM (≈ 16 µg/mL) | MIC [15]: 13.3 µM (≈ 32 µg/mL) | MIC [16]: 4.7 µM (≈ 11.3 µg/mL) | MIC [17]: 6.65 µM (≈ 16 µg/mL) | MIC [18]: 3.33 µM (≈ 8 µg/mL) | MIC [19]: 6.65 µM (≈ 16 µg/mL) | MIC [20]: 6.65 µM (≈ 16 µg/mL) | MIC [21]: 6.65 µM (≈ 16 µg/mL) | MIC [22]: 3.33 µM (≈ 8 µg/mL) | MIC [23]: 3.33 µM (≈ 8 µg/mL)

The next lines start with the values.

MIC [24]: 7.47 µM (≈ 16 µg/mL) | MIC (Acinetobacter baumannii): 3.74 µM (≈ 7.98 µg/mL) | MIC (Candida albicans 17-88): 15 µM (≈ 32 µg/mL) | MIC [25]: 7.47 µM (≈ 16 µg/mL) | MIC [26]: 1.87 µM (≈ 3.99 µg/mL) | MIC (Candida albicans): 10.6 µM (≈ 22.7 µg/mL) | MIC (Candida dubliniensis): 7.5 µM (≈ 16 µg/mL) | MIC (Candida glabrata): 15 µM (≈ 32 µg/mL) | MIC (Candida krusei): 10.6 µM (≈ 22.7 µg/mL) | MIC [27]: 7.47 µM (≈ 16 µg/mL) | MIC [28]: 0.934 µM (≈ 2 µg/mL) | MIC (Candida parapsilosis): 15 µM (≈ 32 µg/mL) | MIC (Candida tropicalis): 2.65 µM (≈ 5.66 µg/mL) | MIC [29]: 3.74 µM (≈ 7.98 µg/mL) | MIC [30]: 3.74 µM (≈ 7.98 µg/mL) | MIC (Cutibacterium acnes): 1.87 µM (≈ 3.99 µg/mL) | MIC (Debaryomyces hansenii): 7.5 µM (≈ 16 µg/mL) | MIC (Enterobacter cloacae): 3.74 µM (≈ 7.98 µg/mL) | MIC [31]: 3.74 µM (≈ 7.98 µg/mL) | MIC (Klebsiella pneumoniae): 2.64 µM (≈ 5.64 µg/mL) | MIC (Kluyveromyces lactis): 3.7 µM (≈ 7.9 µg/mL) | MIC [10]: 1.87 µM (≈ 3.99 µg/mL) | MIC [4]: 1.87 µM (≈ 3.99 µg/mL) | MIC (Pseudomonas aeruginosa): 1.87 µM (≈ 3.99 µg/mL) | MIC [32]: 1.87 µM (≈ 3.99 µg/mL) | MIC (Staphylococcus aureus MR): 1.87 µM (≈ 3.99 µg/mL) | MIC (Staphylococcus aureus): 2.64 µM (≈ 5.64 µg/mL) | MIC [12]: 3.74 µM (≈ 7.98 µg/mL)
Compound: CC[C@H](C)[C@@H]1NC(=O)CNC(=O)[C@H](CCCCN)NC(=O)[C@H](Cc2ccc(O)cc2)NC(=O)[C@@H]2CSSC[C@H](NC1=O)C(=O)N[C@@H](Cc1ccccc1)C(=O)N[C@@H](CCCCN)C(=O)N[C@@H](CCCCN)C(=O)N[C@H](C(=O)N[C@@H](CCCCN)C(N)=O)CSSC[C@H](NC(=O)[C@H](Cc1ccccc1)NC(=O)[C@@H](N)CCCN=C(N)N)C(=O)N[C@@H](Cc1c[nH]c3ccccc13)C(=O)N[C@@H](CCCCN)C(=O)N[C@@H](C(C)C)C(=O)N2 [RFCWKVCYKGICFKKCK]

MIC [33]: 13.5 µM (≈ 32 µg/mL)
Compound: CC[C@H](C)[C@H](NC(=O)[C@H](CCCCN)NC(=O)[C@H](CCCN=C(N)N)NC(=O)[C@@H](NC(=O)[C@@H](N)Cc1ccc(O)cc1)[C@@H](C)CC)C(=O)N[C@@H](CCCN=C(N)N)C(=O)N[C@@H](CCCN=C(N)N)C(=O)N[C@@H](Cc1ccccc1)C(=O)N[C@@H](Cc1ccccc1)C(=O)N[C@@H](CCCCN)C(=O)N[C@H](C(=O)N[C@@H](CC(C)C)C(=O)N[C@@H](CC(N)=O)C(=O)N[C@@H](CCCCN)C(=O)N[C@@H](CC(N)=O)C(=O)N[C@@H](CC(C)C)C(=O)N[C@@H](CCCCN)C(=O)N[C@@H](CCCCN)C(N)=O)[C@@H](C)O [YIRKIRRFFKTLNKNLKK]

Source: DBAASP
